Marks after values point to notes of the source that are not given here. Where a SMILES comes first, the peptide text is derived from it. [ ]: non-standard residue; d: D form.
Tested on: TNBS-induced colon inflammation
Test: TNBS rat model of inflammatory bowel disease
Format: in vivo
Procedure: Colon inflammation was induced by intra-rectal/colon administration of the hapten trinitrobenzene sulphonic acid (TNBS) on male Sprague-Dawley rats (175-200 g) (Bouma, Nature Rev, 2003; Morris, Gastroenterology, 1989). Animals were anesthetized with isoflurane and TNBS dissolved in 50% ethanol (vol/vol). 120 mg/ml (TNBS) was administered into the colon (total volume of 0.25 ml per rat) using a polyethylene tube (PE50). The cannula was inserted at 8 cm from the anus and kept in place for at least 15 minutes after TNBS administration in order to prevent expulsion of the solution. Two hours prior to TNBS administration, the API-101 derivative API-101.10 (1.1 mg/kg) or 0.9% saline was administered intravenously via the caudal vein (total volume of 0.3 ml). […] A third group (control) was not injected with TNBS. Six days after administration of TNBS, rats were killed by CO2 inhalation. Day 6 was chosen as an endpoint because by day 7 spontaneous tissue regeneration begins and this can mask the therapeutic effect of the tested peptide or peptide derivative. Colon was removed and examined macroscopically (adhesions, ulcerations, discoloration and bleeding) and histologically (neutrophil infiltration, epithelial injury, crypt distortion and ulcerations) (Anthony et al., Int. J. Exp. Path. 76:215-224, 1995; Padol et al., Eur. J. of Gastroenterol. Hepatol. 12:257-265, 2000; Dieleman et al., […], 1997; Torres et al., Digestive Diseases and Sciences 44:2523-2529, 1999). Two animals per group were studied.
Histological transversal sections were cut at 4-6 cm from the proximal anal region and colored with the hematoxylin/eosin method. The TNBS model of inflammatory bowel disease reproduces the inflammatory characteristics and tissue injuries of Crohn's disease (e.g., in humans). Morphologically, the colon of the animals injected with TNBS presented thickening, edema, and discoloration of the intestinal wall indicating a significant inflammation. […] Histological features consisted of neutrophil infiltration into the epithelial layer and crypts, epithelial lining injury as well as the loss of crypts. […] The organization and integrity of the crypts in the API-101.10-treated colon is conserved even if there is still some inflammation (half the dose of API-101.10 was used as compared to the macroscopic analysis experiment).
Colon inflammation was induced by intra-rectal/colon administration of the hapten trinitrobenzene sulphonic acid (TNBS) as described above. Two hours prior to TNBS administration, peptides, peptidomimetics or 0.9% saline were administered intravenously (iv) via the caudal vein (various concentrations of mg/kg/d) (total volume of 0.3 ml). […] A third group (control) was not injected with TNBS. For intermittent administration, fifteen minutes after TNBS administration, 101.10 (0.25-1 mg/kg), 101.107 (0.2 mg/kg), 101.113 (0.05-1 mg/kg) were administered by intermittent intraperitoneal injection (ip). Also, these IL-1R antagonists were given twice a day (BID); Remicade® (anti-TNFα) (10 mg/kg) and dexamethasone (0.75 mg/kg) were administered intraperitoneally but only once a day (qd). The intrarectal administration (ir) of 101.10, 101.113 (1 and 2.5 mg/kg), and 5-ASA (50 mg/kg) was done one hour after TNBS administration, and twice a day, except for 5-ASA which is once a day. Finally, 101.10 (1-5 mg/kg) was also administered orally by gavage (po), twice a day. Forty-eight hours after administration of TNBS, rats were killed by CO2 inhalation. The colon was removed and assessed macroscopically (adhesions, ulcerations, discoloration and bleeding) and histologically (neutrophil infiltration, epithelial injury, crypt distortion and ulcerations). One to seven animals per group were studied, according to treatments. Myeloperoxidase (MPO) activity was measured on tissue lysates.

[1] = continuous infusion (ip), 0.25 mg/kg/d
[2] = continuous infusion (ip), 0.75 mg/kg/d
[3] = continuous infusion (ip), 2.2 mg/kg/d
[4] = continuous infusion (ip), 4.0 mg/kg/d
[5] = intermittent injection (ip), 0.25-BID mg/kg/d
[6] = intermittent injection (ip), 0.50-BID mg/kg/d
[7] = intermittent injection (ip), 1.0-BID mg/kg/d
[8] = intermittent injection (ip), 1.0-BID mg/kg/d, 12 h after TNBS
[9] = intermittent injection (ip), 1.0-qd mg/kg/d
[10] = intrarectal administration, 2.5-BID mg/kg/d
[11] = intrarectal administration, + PEG-400, 1.0-BID mg/kg/d
[12] = intrarectal administration, + PEG-400, 2.5-BID mg/kg/d
[13] = oral administration, 5.0-BID mg/kg/d
[14] = oral administration, + PEG-400, 1.0-BID mg/kg/d
[15] = oral administration, + PEG-400, 2.5-BID mg/kg/d
[16] = oral administration, + PEG-400, 5.0-BID mg/kg/d

## CC(C)C[C@@H](NC(=O)[C@@H](CCC(=O)O)NC(=O)[C@H](NC(=O)[C@H](NC(=O)[C@@H](Cc1ccc(O)cc1)NC(=O)[C@H](N)CCCNC(=N)N)[C@H](C)O)C(C)C)C(=O)N[C@H](C)C(N)=O [API-101.10, RYTVELA] (H-[dR][dY][dT][dV][dE][dL][dA]-NH2; N-terminus and C-terminus assumed)
1.1 mg/kg iv 2 h before TNBS, then 2.2 mg/kg continuous ip infusion, day 6
  TNBS-induced colon damage: prevented TNBS-induced colon damage
[1]
  Histologic evaluation (median score): 2 (Small ulcer (<5 crypts))
  MPO (% of TNBS + Saline): 34 % of TNBS + Saline
[2]
  Histologic evaluation (median score): 4.4 median score
  MPO (% of TNBS + Saline): 54 % of TNBS + Saline
[3]
  Histologic evaluation (median score): 2 (Small ulcer (<5 crypts))
  MPO (% of TNBS + Saline): 46 ± 22 % of TNBS + Saline
[4]
  Histologic evaluation (median score): 2 (Small ulcer (<5 crypts))
  MPO (% of TNBS + Saline): 82 % of TNBS + Saline
Gavage twice a day, 5.0 mg/kg/d
  inflammatory features and MPO activity: substantially reduces
[5]
  Histologic evaluation (median score): 2.25 median score
  MPO (% of TNBS + Saline): 85 % of TNBS + Saline
  Macroscopic evaluation (median score): 0.87 median score
[6]
  Histologic evaluation (median score): 3 (Medium ulcer (5-10 crypts))
  MPO (% of TNBS + Saline): 126 % of TNBS + Saline
  Macroscopic evaluation (median score): 0.87 median score
[7]
  Histologic evaluation (median score): 1.25 median score
  MPO (% of TNBS + Saline): 47 ± 9 % of TNBS + Saline
  Macroscopic evaluation (median score): 0.8 ± 0.1 median score
[8]
  Histologic evaluation (median score): 2.6 median score
  Macroscopic evaluation (median score): 1.1 ± 0.1 median score
Intermittent injection (ip), 1.0-BID mg/kg/d, 12 h after TNBS, leucocyte infiltration has already occurred
  MPO (% of TNBS + Saline): 123 ± 18 % of TNBS + Saline
[9]
  Histologic evaluation (median score): 5 (Marked denudation (>20 crypts))
  MPO (% of TNBS + Saline): 67 % of TNBS + Saline
  Macroscopic evaluation (median score): 1.63 median score
Intraperitoneal osmotic pumps (continuous infusion), superior or equivalent to Kineret
  MPO activity, macroscopic and histologic score: marked reductions
[10]
  MPO (% of TNBS + Saline): 111 ± 25 % of TNBS + Saline
  Macroscopic evaluation (median score): 1.4 ± 0.1 median score
[11]
  Histologic evaluation (median score): 3.2 median score
  MPO (% of TNBS + Saline): 110 % of TNBS + Saline
  Macroscopic evaluation (median score): 1.25t median score
[12]
  Histologic evaluation (median score): 3.9 median score
  MPO (% of TNBS + Saline): 59 % of TNBS + Saline
  Macroscopic evaluation (median score): 1.17^† median score
intrarectally, 2.5 mg/kg/d
  reduction of MPO activity: 50%
[13]
  Histologic evaluation (median score): 2.25 median score
  MPO (% of TNBS + Saline): 65 % of TNBS + Saline
  Macroscopic evaluation (median score): 0.75 median score
[14]
  Histologic evaluation (median score): 3.5 median score
  MPO (% of TNBS + Saline): 167 % of TNBS + Saline
  Macroscopic evaluation (median score): 1.0 median score
[15]
  Histologic evaluation (median score): 3.5 median score
  MPO (% of TNBS + Saline): 176 % of TNBS + Saline
  Macroscopic evaluation (median score): 1.25 median score
[16]
  Histologic evaluation (median score): 3.6 median score
  MPO (% of TNBS + Saline): 57 % of TNBS + Saline
  Macroscopic evaluation (median score): 1.5 median score
Twice a day, surpasses dexamethasone, Remicade and 5-ASA
  efficacy of intermittent administration: dose-dependent efficacy
